The record followed here is patent US20260183297A1, “SELECTION OF PATIENTS FOR THE TREATMENT OF FADS1-MEDIATED DISEASES OR DISORDERS USING FADS-1 INHIBITORS” (AMGEN INC., priority 2022, published 2026).

The nature of series [1]: Liver triglyceride measurement. It is filed as in vivo, mouse. As to conditions: DIO mice, 8 weeks of 10 or 30 mg/kg. As to the method:
Liver total lipids were homogenized and extracted using chloroform methanol solution at a ratio of 2:1. Extracted lipids were dried under nitrogen gas and suspended in 90% isopropanol, 10% Triton X-100 solution. Liver triglyceride levels in mg/g tissue were determined using total triglyceride measurement kits from Wako Diagnostics (Richmond, VA) and Sigma-Aldrich (Burlington, MA).

For series [2], the target named is T1, FADS1 (Mus musculus, UniProt Q920L1).
T1 construct: Liver from ^13C5-DGLA dosed DIO mice was collected for pharmacodynamic (PD) analysis; from tissue; host or cells: living DIO C57Bl/6 mice; 13C5-DGLA to 13C5-AA conversion read in liver (A4) or blood plasma (A5)
T1 sequence (Q920L1 1-447): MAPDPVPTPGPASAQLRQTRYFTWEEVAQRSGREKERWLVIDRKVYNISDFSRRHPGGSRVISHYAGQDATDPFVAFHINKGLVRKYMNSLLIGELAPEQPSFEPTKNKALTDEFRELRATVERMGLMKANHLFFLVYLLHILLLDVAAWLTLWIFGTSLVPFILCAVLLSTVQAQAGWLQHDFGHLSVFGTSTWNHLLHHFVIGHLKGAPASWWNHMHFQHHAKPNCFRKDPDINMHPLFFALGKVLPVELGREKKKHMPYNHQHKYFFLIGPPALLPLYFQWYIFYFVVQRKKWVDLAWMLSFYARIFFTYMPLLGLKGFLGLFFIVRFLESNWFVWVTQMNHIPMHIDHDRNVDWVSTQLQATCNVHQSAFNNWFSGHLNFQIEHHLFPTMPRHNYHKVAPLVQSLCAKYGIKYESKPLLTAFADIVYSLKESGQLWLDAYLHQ
Kind of series: In vivo FADS1 activity measurement using blood plasma (13C5-DGLA to 13C5-AA conversion). Conditions: DIO mice, 24 hours after dosing. Here is the method:
FADS1 activity in the presence of Compounds B-E was also measured using blood plasma (in addition to using the liver). The above procedures were perforned to measure the in vivo activity of FADS1 using the liver. The following general procedures were used to measure FADS1 activity using blood plasma. Diet-induced obese (DIO) mice that were on 12 weeks of high fat diet were used to determine the pharmacokinetic (PK) and pharmacodynamic (PD) properties of test compounds. To determine the target coverage at 24 hours after dosing with a test compound (e.g., Compounds B-E, shown below), mice were IP dosed with 0.1 ml solution of ^13C5-DGLA (2 mM in 18.42 mM Na2CO3 buffer). Necropsy were performed at 30 minutes post ^13C5-DGLA dosing. EDTA Plasma was collected for PK and PD analysis.
For PD analysis, 50 μl of plasma or standards (pooled untreated mouse plasma with ^13C5-DGLA and ^13C5-AA added at concentration of 4.57 nM to 10 uM) were mixed with 10 μl of 90% methanol and 10 μl of 50 μg/mL of ALA-D14 as an internal standard (100 μM alpha-linolenic acid-d14 (ALA-d14, Cayman Chemical)) in a 96 well plate. 490 μl of chloroform:methanol (2:1) were added to each well. Plates were plated on a shaker for 5 min prior to adding 66.5 μl water. The plates were shaken for another 5 minutes, followed by centrifugation at 2000 RPM for 5 minutes. The bottom organic layer was transferred to a clean 96 well plate. 333 ul of chloroform:methanol (2:1) were added to the to the remaining liquid phase in the original plate. After 5 min of shaking, the plate was centrifuged at 2000 RPM for 5 minutes. The bottom layer was collected and combined with the first bottom layer. The combined layers were evaporated to dryness under a constant stream of nitrogen gas. After the plate has been dried, 100 μl of 2N NaOH was added to the mixture for subsequent saponification at 65° C. for 1 hour. The samples were then cooled to room temperature and the mixture was then acidified with 50 μl of formic acid followed by two consecutive chloroform:methanol (2:1) extractions. 500 μl of Chloroform:methanol (2:1) was added and the mixture thoroughly mixed by shaking. The plate was then centrifuged at 2,000 rpm for 5 min. The bottom chloroform phase was transferred to a new 2 mL 96 well plate and the remaining aqueous layer was extracted with another 250 μl of chloroform:methanol (2:1). The organic extracts were combined, and the solvent was evaporated to dryness by placing the plate under nitrogen. Extracts were then dissolved in 200 μl of acetonitrile/methanol (1:1). The plate was placed on a shaker for 30 minutes to ensure thorough mixing and dissolution of the extracted fatty acids. The plate was then centrifuged at 2000 RPM for 5 minutes. 80 μl of the samples were transferred to a new 96 well polypropylene plate for analysis on a LC-MS/MS for the following analytes: ^13C5-DGLA, ^13C5-AA, with ALA-d14 as the internal standard. Briefly describing the LC-MS/MS method: 20 μl of sample was injected onto a Poroshell 120 EC-C18 3.0×50 mm, 1.9 μm id column. Mobile phases were 80% acetonitrile containing 5 mM ammonium acetate for mobile phase A and 99.5% acetonitrile containing 5 mM ammonium acetate for mobile phase B. The LC gradient was a 3 min long method at a flow rate of 0.4 mL/minute consisting of 45% B at 0 to 0.5 min, followed by a 45% B to 100% B from 0.5 to 2.0 min; the system was then maintained at 100% B from 2.0 min to 2.5 min and returned to 45% B at 2.6 min and maintained until end of the method. The analyte peak areas were quantified by using the SCIEX Analyst software. To determine the degree of FADS1 inhibition, the in vivo FADS1 activity, POC, percent of inhibition, and in vivo IC50 values are calculated as described above for liver FADS1 activity measurement.

Setting [3] is: mouse, single oral dose 10 mg/kg.
Where [4] appears, read: mouse, single oral dose 30 mg/kg.

In the case of `COc1ccn2c(=O)c(-c3cnn(CC(F)(F)C(F)(F)F)c3)c(C(F)(F)F)nc2c1` [Compound A, 8-methoxy-3-(1-(2,2,3,3,3-pentafluoropropyl)-1H-pyrazol-4-yl)-2-(trifluoromethyl)-4H-pyrido[1,2-a]pyrimidin-4-one], in series [1], the hepatic triglyceride content entry is recorded as “No apparent increase”.

The inhibition is the share of the control response that was lost under treatment. Consider `COc1ccn2c(=O)c(-c3cnn(CC(F)(F)C(F)(F)F)c3)c(C(F)(F)F)nc2n1` [Compound B], for which the “Plasma Avg % Conversion” value in series [2] (single oral dose 10 mg/kg) was found to be 2.9%; in series [2] (single oral dose 30 mg/kg), 2.2%; in series [2] (single oral dose 50 mg/kg), 1.9%. Besides, 10 mg/kg produced 95.2% inhibition in series [2] (setting [3]). Also, the inhibition at 30 mg/kg in series [2] (setting [4]) turned out to be 96.3%. In addition, at 50 mg/kg the inhibition in series [2] (mouse, single oral dose 50 mg/kg) was 96.9%.

Turning to `N#Cc1ccn2c(=O)c(-c3cnn(CC(F)(F)C(F)(F)F)c3)c(C(F)(F)F)nc2c1` [Compound C], the “Plasma Avg % Conversion” value in series [2] (single oral dose 3 mg/kg) is on record as 10.1%; in series [2] (single oral dose 10 mg/kg), 4.3%; in series [2] (single oral dose 30 mg/kg), 1.7%. In addition, in series [2] (mouse, single oral dose 3 mg/kg), the inhibition at 3 mg/kg is 83.3%. Moreover, the inhibition at 10 mg/kg in series [2] (setting [3]) is 92.8%. In addition, testing at 30 mg/kg in series [2] (setting [4]) gave an inhibition of 97.1%.
